The source of these data is patent US7348301B2, “Lysozyme-based method and composition to control the growth of microorganisms in aqueous systems” (Buckman Laboratories International, Inc., priority 2006, dated 2008).

Assay [1] concerns Chlorella sp. (ATCC 7516). In words: Evaluation of algaecidal activity (MIC, checkerboard synergy) against Chlorella sp. The format is cell-based. Particulars: for [A]/MICA + [B]/MICB (Fractional Inhibitory Concentration Index, FIC): Chlorella sp., <1 denotes synergy; for MIC (ppm product): Chlorella sp. (ATCC 7516), 14 days at 24 C, 16 h light/8 h darkness, enzyme alone. The procedure: (§1) A. Evaluation of Algaecidal Activity. This test method provides a technique for testing compounds for their effectiveness to inhibit (repress) algae growth.
(§2) Cell suspension from a culture grown in modified Allen's medium for 14 days or as needed to attain a desired cell mass of Chlorella sp. (ATCC 7516) or Phormidium faveolarum (UTEX 427). The inoculum is calibrated at 82% transmittance measured at 590 nanometers wavelength before inoculation.
(§3) Sterilize the medium in the autoclave for 20 minutes at 15 pounds pressure (121° C.). After autoclaving, cool medium to 45-50° C. and dispense 5 ml of medium per test tube, then add the compound and the inoculum.
(§4) Prepare a stock solution in water of the compound to be tested. The concentration of the stock solution is dependent on the largest dosage desired to be tested. Dilute the stock solution to obtain dosages smaller than that chosen for the stock solution. A maximum amount of 100 microliters of stock solution or the corresponding dilution should be added per test tube.
• Add 100 microliters of inoculum per test tube, per type of medium and type of inoculum. Incubation: • Place the test tubes containing the treatments in an incubator set at 24° C. Light is provided by plant growth fluorescent tubes set to provide 16 h of light and 8 h of darkness. […] The minimum inhibitory concentration (MIC) of the compound is the smallest dosage showing negative algae growth. Synergy Evaluation:
Synergy was measured by checkerboards dilutions (Yan and Hancock, 2001), in which one compound is diluted along the rows of test tubes and the other is diluted along the columns. This method focuses on looking for a reduction in the MIC of each component in the presence of the other.

The test system of assay [2] is Phormidium faveolarum (UTEX 427). The assay is described as follows: Evaluation of algaecidal activity (MIC, checkerboard synergy) against Phormidium faveolarum. In kind it is cell-based. To be noted: <1 denotes synergy. The procedure:
as §1, §2, §3, §4
• Add 100 microliters of inoculum per test tube, per type of medium and type of inoculum. Incubation: • Place the test tubes containing the treatments in an incubator set at 24° C. […]
Synergy was measured by checkerboards dilutions (Yan and Hancock, 2001), in which one compound is diluted along the rows of test tubes and the other is diluted along the columns. […]

Consider `[Cl-].[Na+]` [Sodium Chloride], for which the “[A]/MICA + [B]/MICB (Fractional Inhibitory Concentration Index, FIC)” value in assay [1] (Example 10, 14 days) is 1.000; in assay [2] (Example 11, 14 days), 1.00. Take “Benzalkonium Chloride [reference compound]”: the “[A]/MICA + [B]/MICB (Fractional Inhibitory Concentration Index, FIC)” value in assay [1] (Example 1, 18 days) came to 1.000; in assay [2] (Example 2, 18 days), 1.00. For the molecule “Lysozyme Chloride [Lysozyme Chloride (MP Biomedicals)]”, the “MIC (ppm product)” value in assay [1] is reported as 0.1-0.4 ppm product.

As to “Lysozyme Chloride [Lysozyme Chloride (NutriScience)]”, in assay [1], the “MIC (ppm product)” value is recorded as 0.4-0.7 ppm product. Same read-out and setting: next, Lysozyme [Lysozyme (Sigma)]: 0.4-0.7 ppm product.
